In ChEMBL document CHEMBL3596106, “Structure-activity relationship study of E6 as a novel necroptosis inducer” (Bioorg Med Chem Lett, 2015):
Active and inactive are the calls of the source.

Tests used:
[1] = tested on: Jurkat; assay: Induction of necroptosis in human Jurkat T cells incubated for 24 hrs by ATP-based cell viability assay; type: functional
[2] = tested on: Jurkat (Homo sapiens); assay: Potency index, ratio of EC50 for E6 to EC50 for test compound for induction of necroptosis in human Jurkat T cells incubated for 24 hrs by ATP-based cell viability assay
[3] = tested on: Jurkat; assay: Induction of necroptosis in human Jurkat T cells incubated for 24 hrs in presence of Nec-8 by ATP-based cell viability assay; type: functional
[4] = tested on: Jurkat; assay: Induction of necroptosis in human Jurkat T cells incubated for 24 hrs in presence of caspase inhibitor zVAD.fmk by ATP-based cell viability assay; type: functional
[5] = tested on: Jurkat; assay: Induction of necroptosis in human Jurkat T cells incubated for 24 hrs in presence of RIPK1 inhibitor Nec-1 by ATP-based cell viability assay; type: functional
[6] = Homo sapiens, Jurkat, 24 h, read-out: EC50

## Cc1cccc(-c2ccc(NCc3ccccc3O)cc2)c1
[1]; [6]
  EC50: 9.19 µM

## COc1ccc(-c2ccc(NCc3ccccc3O)cc2)cc1
[1]; [6]
  EC50: 0.58 µM
[2]
  Ratio EC50: 17

## Oc1ccc(CNc2ccc(C3CCCCC3)cc2)cc1
[1]; jurkat
  EC50: Not Active

## Cc1cccc(CNc2ccc(C3CCCCC3)cc2)c1O
[1]; jurkat
  EC50: Not Active

## Oc1ccccc1CNc1ccc(-c2ccccc2)nc1
[1]; [6]
  EC50: 0.84 µM

## CCSc1ccc(-c2ccc(NCc3ccccc3O)cc2)cc1
[1]; [6]
  EC50: 1.98 µM

## Oc1ccccc1CNc1ccc(-c2ccccc2F)cc1
[1]; [6]
  EC50: 2.15 µM

## Oc1ccccc1CNc1ccc(-c2ccc(Cl)cc2)nc1
[1]; jurkat
  EC50: Not Active

## Oc1ccccc1CCc1ccc(C2CCCCC2)cc1
[1]; jurkat
  EC50: Not Active

## COc1ccc(CNc2ccc(C3CCCCC3)cc2)c(O)c1
[1]; jurkat
  EC50: Not Active

## Oc1ccccc1CNc1ccc(-c2ccc(F)cc2)nc1
[1]; [6]
  EC50: 2.59 µM

## Oc1ccccc1CNc1ccc(-c2ccccc2)cn1
[1]; jurkat
  EC50: Not Active

## Oc1ccccc1CNc1ccc(-c2ccc(C(F)(F)F)cc2)cc1
[1]; jurkat
  EC50: Not Active

## Oc1ccccc1CNc1ccc(-c2cccc(OC(F)(F)F)c2)cc1
[1]; jurkat
  EC50: Not Active

## Oc1ccccc1CNc1ccc(N2CCCCC2)cc1
[1]; jurkat
  EC50: Not Active

## N#Cc1ccccc1-c1ccc(NCc2ccccc2O)cc1
[1]; jurkat
  EC50: Not Active

## CC(=O)c1ccc(-c2ccc(NCc3ccccc3O)cc2)cc1
[1]; jurkat
  EC50: Not Active

## COc1ccccc1-c1ccc(NCc2ccccc2O)cc1
[1]; jurkat
  EC50: Not Active

## CC(C)Oc1ccc(-c2ccc(NCc3ccccc3O)cc2)cc1
[1]; [6]
  EC50: 5.94 µM

## COc1cccc(-c2ccc(NCc3ccccc3O)cc2)c1
[1]; jurkat
  EC50: Not Active

## Cc1ccccc1-c1ccc(NCc2ccccc2O)cc1
[1]; [6]
  EC50: 5.22 µM

## Oc1cc(I)ccc1CNc1ccc(C2CCCCC2)cc1
[1]; jurkat
  EC50: Not Active

## O=[N+]([O-])c1ccc(NCc2ccccc2O)cc1
[1]; jurkat
  EC50: Not Active

## Oc1ccccc1CNc1ccc(-c2ccccc2)c(F)c1
[1]; [6]
  EC50: 2.85 µM

## Cc1ccc(CNc2ccc(C3CCCCC3)cc2)c(O)c1
[1]; jurkat
  EC50: Not Active

## Oc1ccccc1CNc1ccc(F)cc1
[1]; jurkat
  EC50: Not Active

## CC(C)(C)c1ccc(-c2ccc(NCc3ccccc3O)cc2)cc1
[1]; jurkat
  EC50: Not Active

## CCOc1ccc(-c2ccc(NCc3ccccc3O)cn2)cc1
[1]; jurkat
  EC50: Not Active

## Oc1ccccc1CNc1ccc(-c2ccc(F)cc2)cc1
[1]; [6]
  EC50: 3.86 µM

## Cc1ccc(O)c(CNc2ccc(C3CCCCC3)cc2)c1
[1]; jurkat
  EC50: Not Active

## Oc1ccccc1CNc1nc(-c2ccccc2)cs1
[1]; jurkat
  EC50: Not Active

## Cc1ccc(-c2ccc(NCc3ccccc3O)cn2)cc1
[1]; jurkat
  EC50: Not Active

## Oc1ccccc1CNc1ccc(-c2cccc(OCc3ccccc3)c2)cc1
[1]; jurkat
  EC50: Not Active

## Oc1ccccc1CNc1ccc(-c2ccccc2Cl)cc1
[1]; jurkat
  EC50: Not Active

## COc1ccccc1CNc1ccc(C2CCCCC2)cc1
[1]; jurkat
  EC50: Not Active

## N#Cc1ccc(-c2ccc(NCc3ccccc3O)cc2)cc1
[1]; jurkat
  EC50: Not Active

## Oc1ccccc1CNc1ccc(C2CCCCC2)cc1
[1]; [6]
  EC50: 8.8 µM
[3]
  Activity: inactive
[4]
  Activity: Active
[5]
  Activity: Active

## CCCc1ccc(-c2ccc(NCc3ccccc3O)cc2)cc1
[1]; [6]
  EC50: 2.39 µM

## Oc1cc(F)ccc1CNc1ccc(C2CCCCC2)cc1
[1]; jurkat
  EC50: Not Active

## COc1ccc(-c2ccc(NCc3ccccc3O)cn2)cc1
[1]; [6]
  EC50: 4.76 µM

## CN(Cc1ccccc1O)c1ccc(C2CCCCC2)cc1
[1]; jurkat
  EC50: Not Active

## Cc1cc(-c2ccccc2)ccc1NCc1ccccc1O
[1]; jurkat
  EC50: Not Active

## Oc1cc(C(F)(F)F)ccc1CNc1ccc(C2CCCCC2)cc1
[1]; jurkat
  EC50: Not Active

## CN1CCN(c2ccc(NCc3ccccc3O)cc2)CC1
[1]; jurkat
  EC50: Not Active

## Oc1ccccc1CNc1ccc(-c2ccccc2)cc1
[1]; [6]
  EC50: 1.82 µM
[2]
  Ratio EC50: 5

## Cc1ccc(-c2ccc(NCc3ccccc3O)cc2)cc1
[1]; [6]
  EC50: 3.79 µM

## Oc1ccccc1CNc1ccc(-c2ccc(OC(F)(F)F)cc2)cc1
[1]; jurkat
  EC50: Not Active

## Oc1ccccc1CNc1ccc(N2CCNCC2)cc1
[1]; jurkat
  EC50: Not Active

## Oc1ccccc1CNc1ccc(-c2ccccc2)cc1F
[1]; [6]
  EC50: 5.35 µM

## Oc1ccccc1Nc1ccc(C2CCCCC2)cc1
[1]; jurkat
  EC50: Not Active

## Oc1ccccc1CCNc1ccc(C2CCCCC2)cc1
[1]; jurkat
  EC50: Not Active

## Oc1ccc(-c2ccc(NCc3ccccc3O)cc2)cc1
[1]; jurkat
  EC50: Not Active

## Oc1cccc(-c2ccc(NCc3ccccc3O)cc2)c1
[1]; jurkat
  EC50: Not Active

## Oc1ccccc1CNc1ccccc1
[1]; jurkat
  EC50: Not Active

## CCOc1cccc(-c2ccc(NCc3ccccc3O)cc2)c1
[1]; jurkat
  EC50: Not Active

## Oc1ccccc1CNc1ccc(-c2ccc(Cl)cc2)cc1
[1]; [6]
  EC50: 2.39 µM

## Oc1ccccc1NCc1ccc(C2CCCCC2)cc1
[1]; jurkat
  EC50: Not Active

## Oc1cc(-c2ccccc2)ccc1CNc1ccc(C2CCCCC2)cc1
[1]; jurkat
  EC50: Not Active

## COC(=O)c1ccc(-c2ccc(NCc3ccccc3O)cc2)cc1
[1]; jurkat
  EC50: Not Active

## CCSc1ccc(-c2ccc(NCc3ccccc3O)cn2)cc1
[1]; [6]
  EC50: 1.92 µM

## Oc1ccccc1CNc1ccc(-c2ccc(N3CCOCC3)cc2)nc1
[1]; jurkat
  EC50: Not Active

## O=C(Nc1ccc(C2CCCCC2)cc1)c1ccccc1O
[1]; jurkat
  EC50: Not Active

## Cc1cc(NCc2ccccc2O)ccc1-c1ccccc1
[1]; [6]
  EC50: 8.61 µM

## Oc1ccccc1CNc1ccc(-c2cccc(Cl)c2)cc1
[1]; [6]
  EC50: 6.2 µM

## CCCOc1ccc(-c2ccc(NCc3ccccc3O)cc2)cc1
[1]; jurkat
  EC50: Not Active

## CCOc1ccc(-c2ccc(NCc3ccccc3O)cc2)cc1
[1]; [6]
  EC50: 0.52 µM
[2]
  Ratio EC50: 17

## Oc1ccccc1CNc1ccc(-c2cccc(F)c2)cc1
[1]; [6]
  EC50: 2.02 µM

## CC(Nc1ccc(C2CCCCC2)cc1)c1ccccc1O (stereo not given)
[1]; jurkat
  EC50: Not Active

## CCOc1ccc(-c2ccc(NCc3ccccc3O)cc2)cc1F
[1]; [6]
  EC50: 2.53 µM

## Oc1ccccc1CNc1cc(-c2ccccc2)no1
[1]; jurkat
  EC50: Not Active

## Oc1ccccc1CNc1ccc(N2CCCC2)cc1
[1]; jurkat
  EC50: Not Active

## c1ccc(CNc2ccc(C3CCCCC3)cc2)cc1
[1]; jurkat
  EC50: Not Active

## Oc1ccccc1CNc1ccc(-c2ccc(-c3ccccc3)cc2)cc1
[1]; jurkat
  EC50: Not Active

## Oc1ccccc1/C=N/c1ccc(C2CCCCC2)cc1
[1]; jurkat
  EC50: Not Active
